ChEMBL document CHEMBL4033614, “Antineoplastic Agents. 603. Quinstatins: Exceptional Cancer Cell Growth Inhibitors” (2017)
Square brackets hold non-standard residues; d marks the D form. Peptide text beside a SMILES is read from it. * marks the point of attachment. Dolaproine = CO[C@@H]([C@@H]1CCCN1)[C@@H](C)C(=O)O; Dil = CC[C@H](C)[C@H](NC)[C@@H](CC(=O)O)OC; X1 = C[C@@H](N*)[C@@H](O)c1ccccc1; NMeV = CN[C@H](C(=O)O)C(C)C

Legend:
MCF7 = assay: Growth inhibition of human MCF7 cells incubated for 48 hrs by sulforhodamine B assay; details: MCF7, 48 h
BXPC-3 [1] = assay: Growth inhibition of human BxPC3 cells incubated for 48 hrs by MTT assay; type: functional; details: BXPC-3, 48 h
NCI-H460 = assay: Growth inhibition of human NCI-H460 cells incubated for 48 hrs by sulforhodamine B assay; details: NCI-H460, 48 h
KM-20L2 = assay: Growth inhibition of human KM20L2 cells incubated for 48 hrs by sulforhodamine B assay; details: KM-20L2, 48 h
DU-145 = assay: Growth inhibition of human DU145 cells incubated for 48 hrs by sulforhodamine B assay; details: DU-145, 48 h
SF-268 = assay: Growth inhibition of human SF268 cells incubated for 48 hrs by sulforhodamine B assay; details: SF-268, 48 h
BXPC-3 [2] = assay: Growth inhibition of human BxPC3 cells incubated for 48 hrs by sulforhodamine B assay; details: BXPC-3, 48 h

GI50 (MCF7) | GI50 (BXPC-3 [1]) | GI50 (NCI-H460) | GI50 (DU-145) | GI50 (BXPC-3 [2]) | SMILES | GI50 (KM-20L2) | GI50 (SF-268)
0.532 nM | 2.66 nM | 5.71 nM | 0.399 nM |  | CC[C@H](C)[C@@H]([C@@H](CC(=O)N1CCC[C@H]1[C@H](OC)[C@@H](C)C(=O)NCCc1ccc2ncccc2c1)OC)N(C)C(=O)[C@@H](NC(=O)[C@H](C(C)C)N(C)C)C(C)C | 0.518 nM | 0.399 nM
0.305 nM | 27.9 nM | 41.2 nM | 0.266 nM |  | CC[C@H](C)[C@@H]([C@@H](CC(=O)N1CCC[C@H]1[C@H](OC)[C@@H](C)C(=O)NCCc1cnc2ccccc2c1)OC)N(C)C(=O)[C@@H](NC(=O)[C@H](C(C)C)N(C)C)C(C)C | 0.532 nM | 0.385 nM
0.097 nM | 2.79 nM | 6.37 nM | 0.172 nM |  | CC[C@H](C)[C@@H]([C@@H](CC(=O)N1CCC[C@H]1[C@H](OC)[C@@H](C)C(=O)NCCc1cccc2ncccc12)OC)N(C)C(=O)[C@@H](NC(=O)[C@H](C(C)C)N(C)C)C(C)C | 0.305 nM | 0.146 nM
0.039 nM | 4.12 nM | 14.6 nM | 0.04 nM |  | CC[C@H](C)[C@@H]([C@@H](CC(=O)N1CCC[C@H]1[C@H](OC)[C@@H](C)C(=O)NCCc1ccc2cccnc2c1)OC)N(C)C(=O)[C@@H](NC(=O)[C@H](C(C)C)N(C)C)C(C)C | 0.054 nM | 0.032 nM
0.412 nM | 12.4 nM | 6.77 nM | 0.412 nM |  | CC[C@H](C)[C@@H]([C@@H](CC(=O)N1CCC[C@H]1[C@H](OC)[C@@H](C)C(=O)NCCc1ccc2ccccc2n1)OC)N(C)C(=O)[C@@H](NC(=O)[C@H](C(C)C)N(C)C)C(C)C | 0.438 nM | 0.31 nM
0.053 nM |  | 1.19 nM | 0.053 nM | 0.425 nM | CC[C@H](C)[C@@H]([C@@H](CC(=O)N1CCC[C@H]1[C@H](OC)[C@@H](C)C(=O)NCCc1cccc2cccnc12)OC)N(C)C(=O)[C@@H](NC(=O)[C@H](C(C)C)N(C)C)C(C)C | 0.053 nM | 0.03 nM
0.398 nM | 5.84 nM | 5.71 nM | 0.305 nM |  | CC[C@H](C)[C@@H]([C@@H](CC(=O)N1CCC[C@H]1[C@H](OC)[C@@H](C)C(=O)NCCc1ccnc2ccccc12)OC)N(C)C(=O)[C@@H](NC(=O)[C@H](C(C)C)N(C)C)C(C)C | 0.425 nM | 0.252 nM

SMILES | GI50 (MCF7) | GI50 (BXPC-3 [1]) | GI50 (NCI-H460) | GI50 (DU-145) | GI50 (BXPC-3 [2]) | GI50 (KM-20L2) | GI50 (SF-268)
CC[C@H](C)[C@@H]([C@@H](CC(=O)N1CCC[C@H]1[C@H](OC)[C@@H](C)C(=O)N[C@H](C)[C@@H](O)c1ccccc1)OC)N(C)C(=O)[C@@H](NC(=O)[C@H](C(C)C)N(C)C)C(C)C | 0.232 nM | > 1.37 nM | 0.533 nM | 0.424 nM |  | 0.492 nM | 0.492 nM
CC[C@H](C)[C@@H]([C@@H](CC(=O)N1CCC[C@H]1[C@H](OC)[C@@H](C)C(=O)N[C@H](C)[C@@H](O)c1ccccc1)OC)N(C)C(=O)[C@@H](NC(=O)[C@@H](NC)C(C)C)C(C)C (H-[NMeV]V[Dil][Dolaproine]-X1) | 0.404 nM | > 1.39 nM | 0.683 nM | 0.418 nM |  | 0.599 nM | 0.432 nM
